Test results as given in patent publication US20260242405A1, “N-DERIVATIZED SIALIC ACIDS AND RELATED SIALOSIDES” (THE REGENTS OF THE UNIVERSITY OF CALIFORNIA, priority 2023, published 2026).

System: influenza NAs

| Substance | resistance of immobilized sialoside to NA-catalyzed cleavage during BLI incubation |
| --- | --- |
| 4-Guanidino-Neu5Acα2-3LacNAcβPorNH-PEG4-Biotin [Compound 10d] | resistant to the NA-catalyzed cleavage |
| 4NH2Neu5Acα2-3LacNAcβPorNH-PEG4-Biotin [Compound 9d] | bound to the NAs but was partially cleaved off during the incubation |
